Converted amounts (≈) assume the structure as drawn.
What was measured:
KB = experiment: Cytotoxicity against human KB cells by MTT assay; type: functional; details: read-out: ED50 (the source's name)
[1] = Cytotoxicity against human HEPA 59T/VGH cells by MTT assay; type: functional; details: read-out: ED50 (the source's name)

Row | Compound | EC50 (KB) [µg/mL] | EC50 [1] [µg/mL]
1 | C=C(C)[C@@H]1CC(=O)[C@H]2[C@H](C1)[C@@H]1C(=O)O[C@@H]3C[C@@]4(C)O[C@@H]2C(=O)[C@@H]4[C@H]13 | > 20 | > 20
2 | C=C(C)[C@H]1C/C=C2\C(=O)O[C@H](C[C@@]3(C)CC(=O)[C@@H](CC(=O)C1)O3)[C@H]2O | 2.3 (≈ 6.6 µM) | 2.4 (≈ 6.89 µM)
3 | C=C(C)[C@H]1C/C=C2\C(=O)O[C@H](C[C@@]3(C)CC(=O)[C@@H](CC(=O)C1)O3)[C@@H]2O | 2.5 (≈ 7.18 µM) | 2.6 (≈ 7.46 µM)
4 | COc1cccc2c1C(=O)c1c(O)c3c(c(O)c1C2=O)C[C@@](O)(C(=O)CO)C[C@@H]3O[C@H]1C[C@H](N)[C@H](O)[C@H](C)O1 [DOXORUBICIN] | 0.3 (≈ 0.552 µM) | 0.3 (≈ 0.552 µM)
5 | C=C(C)[C@H]1C/C=C(\C(=O)OC)CC(=O)C[C@@]2(C)CC(=O)[C@@H](CC(=O)C1)O2 [NORCEMBRENE 5] | > 20 | 17.5 (≈ 48.3 µM)
6 | C=C(C)[C@@H]1CC(=O)CC2=C(C1)[C@@H]1C(=O)O[C@@H]3C[C@](C)(O)[C@H](C2=O)[C@H]13 [SCABROLIDE A] | > 20 | > 20
7 | C=C(C)[C@@H]1CC(=O)C[C@@H]2O[C@](C)(CC2=O)C[C@@H]2C=C(C(=O)O2)[C@@H](OC)C1 [SCABROLIDE C] | 11.9 (≈ 32.8 µM) | 17.8 (≈ 49.1 µM)
8 | C=C(C)[C@H]1CC[C@]23O[C@H]2[C@@H](C[C@@]2(C)CC(=O)[C@H](CC(=O)C1)O2)OC3=O [SCABROLIDE D] | > 20 | > 20
